# Laboratory results taken from US10894784B2, “Heteroarylbenzimidazole compounds” (BAYER PHARMA AKTIENGESELLSCHAFT, priority 2015, dated 2021).
# Biological target: TBK1 (Homo sapiens (Human), UniProt Q9UHD2)
# Assay: TBK1 low ATP kinase assay (in vitro assay 1)
# Assay type: biochemical
# Details: in vitro assay 1, read-out: TBK1 low ATP kinase assay IC50
# Sequence of TBK1 (Q9UHD2 whole entry): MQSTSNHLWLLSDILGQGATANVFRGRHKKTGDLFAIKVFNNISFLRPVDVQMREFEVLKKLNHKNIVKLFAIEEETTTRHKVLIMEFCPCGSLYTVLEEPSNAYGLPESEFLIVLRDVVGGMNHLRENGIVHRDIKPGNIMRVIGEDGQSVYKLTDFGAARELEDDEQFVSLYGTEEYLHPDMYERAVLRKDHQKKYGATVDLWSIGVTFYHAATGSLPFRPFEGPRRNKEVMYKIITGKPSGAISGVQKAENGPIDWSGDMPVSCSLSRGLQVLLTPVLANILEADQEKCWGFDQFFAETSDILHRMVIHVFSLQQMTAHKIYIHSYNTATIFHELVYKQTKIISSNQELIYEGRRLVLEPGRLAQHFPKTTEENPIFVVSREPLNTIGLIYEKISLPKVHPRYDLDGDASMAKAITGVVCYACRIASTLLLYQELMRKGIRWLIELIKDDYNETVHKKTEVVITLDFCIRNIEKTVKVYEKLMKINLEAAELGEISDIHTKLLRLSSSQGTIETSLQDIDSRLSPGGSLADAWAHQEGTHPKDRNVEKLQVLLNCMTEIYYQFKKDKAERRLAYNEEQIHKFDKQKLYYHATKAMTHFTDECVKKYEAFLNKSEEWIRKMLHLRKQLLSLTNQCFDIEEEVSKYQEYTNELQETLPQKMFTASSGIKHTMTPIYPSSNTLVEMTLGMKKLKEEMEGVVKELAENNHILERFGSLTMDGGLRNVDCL
row,IC50 [nM],SMILES
1,149,"CC(c1ccnc(Nc2nc3ccc(-c4cc(C(F)(F)F)ncn4)c(F)c3[nH]2)c1)N1CCN(C(=O)C2(C(F)(F)F)CC2)CC1 (single isomer, unassigned) [Example 173.04, (4-{(1R or 1S)-1-[2-({7-fluoro-6-[6-(trifluoromethyl)pyrimidin-4-yl]-1H-benzimidazol-2-yl}amino)pyridin-4-yl]ethyl}piperazin-1-yl)[1-(trifluoromethyl)cyclopropyl]methanone]"
2,11.1,"CC(c1ccnc(Nc2nc3ccc(-c4cc(C(F)F)ncn4)cc3[nH]2)c1)N1CCN(C(=O)OC(C)(C)C)CC1 (single isomer, unassigned) [Example 174.01, tert-butyl 4-{(1R or 1S)-1-[2-({6-[6-(difluoromethyl)pyrimidin-4-yl]-1H-benzimidazol-2-yl}amino)pyridin-4-yl]ethyl}piperazine-1-carboxylate]"
3,3.63,"CC(c1ccnc(Nc2nc3ccc(-c4cc(C(F)F)ncn4)cc3[nH]2)c1)N1CCN(C(=O)CC(F)(F)F)CC1 (single isomer, unassigned) [Example 174.02, 1-(4-{(1R or 1S)-1-[2-({6-[6-(difluoromethyl)pyrimidin-4-yl]-1H-benzimidazol-2-yl}amino)pyridin-4-yl]ethyl}piperazin-1-yl)-3,3,3-trifluoropropan-1-one]"
4,110,"COc1c(Cl)ncnc1-c1ccc2nc(Nc3cc(CN4CCN(C(=O)OC(C)(C)C)CC4)ccn3)[nH]c2c1 [Compound 60.01, tert-butyl 4-[(2-{[6-(6-chloro-5-methoxypyrimidin-4-yl)-1H-benzimidazol-2-yl]amino}pyridin-4-yl)methyl]piperazine-1-carboxylate]"
5,30.7,"COc1cc(-c2ccc3nc(Nc4cc(CN5CCN(C(=O)C6CC6)CC5)ccn4)[nH]c3c2)ccn1 [Example 02.02, cyclopropyl{4-[(2-{[6-(2-methoxypyridin-4-yl)-1H-benzimidazol-2-yl]amino}pyridin-4-yl)methyl]piperazin-1-yl}methanone]"
6,43.4,"COc1cc(-c2ccc3nc(Nc4cc(CN5CCN(C(=O)C6CCC6)CC5)ccn4)[nH]c3c2)ccn1 [Example 02.04, cyclobutyl{4-[(2-{[6-(2-methoxypyridin-4-yl)-1H-benzimidazol-2-yl]amino}pyridin-4-yl)methyl]piperazin-1-yl}methanone]"
7,49.8,"COc1cc(-c2ccc3nc(Nc4cc(CN5CCN(C(=O)CC6CC6)CC5)ccn4)[nH]c3c2)ccn1 [Example 02.05, 2-cyclopropyl-1-{4-[(2-{[6-(2-methoxypyridin-4-yl)-1H-benzimidazol-2-yl]amino}pyridin-4-yl)methyl]piperazin-1-yl}ethanone]"
8,279,"COc1cc(-c2ccc3nc(Nc4cc(CN5CCN(C(=O)C6CCC6)CC5)ccn4)[nH]c3c2)c(F)cn1 [Example 03.03, cyclobutyl{4-[(2-{[6-(5-fluoro-2-methoxypyridin-4-yl)-1H-benzimidazol-2-yl]amino}pyridin-4-yl)methyl]piperazin-1-yl}methanone]"
9,288,"COc1cc(-c2ccc3nc(Nc4cc(CN5CCN(C(=O)CC6CC6)CC5)ccn4)[nH]c3c2)c(F)cn1 [Example 03.04, 2-cyclopropyl-1-{4-[(2-{[6-(5-fluoro-2-methoxypyridin-4-yl)-1H-benzimidazol-2-yl]amino}pyridin-4-yl)methyl]piperazin-1-yl}ethanone]"

# Second part, the compound before the results:
row,SMILES,IC50 [nM]
1,"CC(c1ccnc(Nc2nc3ccc(-c4cc(C(F)F)ncn4)cc3[nH]2)c1)N1CCN(C(=O)C2CC2)CC1 (single isomer, unassigned) [Example 174.03, cyclopropyl(4-{(1R or 1S)-1-[2-({6-[6-(difluoromethyl)pyrimidin-4-yl]-1H-benzimidazol-2-yl}amino)pyridin-4-yl]ethyl}piperazin-1-yl)methanone]",3.26
2,"CC(c1ccnc(Nc2nc3ccc(-c4cc(N(C)CC5CC5)ncn4)cc3[nH]2)c1)N1CCN(C(=O)C2(C(F)(F)F)CC2)CC1 (single isomer, unassigned) [Example 197.04, {4-[(1R or 1S)-1-{2-[(6-{6-[(cyclopropylmethyl)(methyl)amino]pyrimidin-4-yl}-1H-benzimidazol-2-yl)amino]pyridin-4-yl}ethyl]piperazin-1-yl}[1-(trifluoromethyl)cyclopropyl]methanone]",6.46
3,"Cc1cc(-c2ccc3nc(Nc4cc(CN5CCN(C(=O)OC(C)(C)C)CC5)ccn4)[nH]c3c2)ccn1 [Example 01.01, tert-butyl 4-[(2-{[6-(2-methylpyridin-4-yl)-1H-benzimidazol-2-yl]amino}pyridin-4-yl)methyl]piperazine-1-carboxylate]",150
4,"Cc1cc(-c2ccc3nc(Nc4cc(CN5CCN(C(=O)C6CC6)CC5)ccn4)[nH]c3c2)ccn1 [Example 01.02, cyclopropyl{4-[(2-{[6-(2-methylpyridin-4-yl)-1H-benzimidazol-2-yl]amino}pyridin-4-yl)methyl]piperazin-1-yl}methanone]",42
5,"Cc1cc(-c2ccc3nc(Nc4cc(CN5CCN(C(=O)CC(F)(F)F)CC5)ccn4)[nH]c3c2)ccn1 [Example 01.03, 3,3,3-trifluoro-1-{4-[(2-{[6-(2-methylpyridin-4-yl)-1H-benzimidazol-2-yl]amino}pyridin-4-yl)methyl]piperazin-1-yl}propan-1-one]",53.5
6,"Cc1cc(-c2ccc3nc(Nc4cc(CN5CCN(C(=O)CC6CC6)CC5)ccn4)[nH]c3c2)ccn1 [Example 01.04, 2-cyclopropyl-1-{4-[(2-{[6-(2-methylpyridin-4-yl)-1H-benzimidazol-2-yl]amino}pyridin-4-yl)methyl]piperazin-1-yl}ethanone]",55.5
7,"Cc1cc(-c2ccc3nc(Nc4cc(CN5CCN(C(=O)C6CCC6)CC5)ccn4)[nH]c3c2)ccn1 [Example 01.05, cyclobutyl{4-[(2-{[6-(2-methylpyridin-4-yl)-1H-benzimidazol-2-yl]amino}pyridin-4-yl)methyl]piperazin-1-yl}methanone]",70.9
8,"COc1cc(-c2ccc3nc(Nc4cc(CN5CCN(C(=O)OC(C)(C)C)CC5)ccn4)[nH]c3c2)ccn1 [Example 02.01, tert-butyl 4-[(2-{[6-(2-methoxypyridin-4-yl)-1H-benzimidazol-2-yl]amino}pyridin-4-yl)methyl]piperazine-1-carboxylate]",131
9,"COc1cc(-c2ccc3nc(Nc4cc(CN5CCN(C(=O)CC(F)(F)F)CC5)ccn4)[nH]c3c2)ccn1 [Example 02.03, 3,3,3-trifluoro-1-{4-[(2-{[6-(2-methoxypyridin-4-yl)-1H-benzimidazol-2-yl]amino}pyridin-4-yl)methyl]piperazin-1-yl}propan-1-one]",36.8
10,"COc1cc(-c2ccc3nc(Nc4cc(CN5CCN(C(=O)C6CC6)CC5)ccn4)[nH]c3c2)c(F)cn1 [Example 03.01, cyclopropyl{4-[(2-{[6-(5-fluoro-2-methoxypyridin-4-yl)-1H-benzimidazol-2-yl]amino}pyridin-4-yl)methyl]piperazin-1-yl}methanone]",198
11,"COc1cc(-c2ccc3nc(Nc4cc(CN5CCN(C(=O)CC(F)(F)F)CC5)ccn4)[nH]c3c2)c(F)cn1 [Example 03.02, 3,3,3-trifluoro-1-{4-[(2-{[6-(5-fluoro-2-methoxypyridin-4-yl)-1H-benzimidazol-2-yl]amino}pyridin-4-yl)methyl]piperazin-1-yl}propan-1-one]",232
